The values that follow come from article PMC7352759, “S(+)-(2E)-N-(2-Hydroxypropyl)-3-Phenylprop-2-Enamide (KM-568): A Novel Cinnamamide Derivative with Anticonvulsant Activity in Animal Models of Seizures and Epilepsy” (International Journal of Molecular Sciences, 2020).

In series [1] the test system is H9c2 cells. As to the kind of experiment: MTT cytotoxicity assay, H9c2. It counts as cell-based, rat. As to the method: Human liver cancer HepG2 cell line (ATCC HB8065) and rat cardiomyoblast cell line H9c2 (ATCC-CRL1446) were purchased in ATCC (American Type Culture Collection, Manassas, VA, USA). The cells were cultured in standard conditions (37 °C, 5% CO2) in EMEM medium (ATCC, Manassas, VA, USA), supplemented with 10% FBS (Gibco, Waltham, MA, USA) and antibiotics (1% streptomycin/penicillin mixture, Sigma–Aldrich, Darmstadt, Germany) or DMEM high glucose (ATCC, Manassas, VA, USA) supplemented with 10% FBS (Gibco, Waltham, MA, USA) and antibiotics (1% streptomycin/penicillin mixture, Sigma–Aldrich, Darmstadt, Germany), respectively.
The MTT colorimetric assay was used to determine the cytotoxic effects of the KM-568 and DOX (Sigma–Aldrich, Darmstadt, Germany). Cells were seeded at a density of 1 × 10^4 in 96-well plates. Following overnight culture, the cells were then treated with KM-568 and DOX in concentration range 0.1–200 µM (hepatocytotoxicity) or 0.1–100 µM (cardiocytotoxicity). Following cell exposure to each drug for 24 h in 96 well plates, 10 µL MTT reagent (Sigma–Aldrich, Darmstadt, Germany) was added to each well; after 4 h of incubation (37 °C, 5% CO2), the medium was aspirated and formazan produced in cells appeared as dark crystals in the bottom of the wells. […] Then, absorbance was measured at 570 nm on a multi-well plate reader (Spectra Max iD3, Molecular Devices, San Jose, CA, USA). […]

The nature of series [2]: Ames microplate format (MPF) assay, TA98. The following applies: Salmonella typhimurium. The text has this:
(§1) The Ames microplate format (MPF) mutagenicity assay (Xenometrix, Allschwil, Switzerland) was used to test KM-568 mutagenicity. Growth, exposure, and indicator media, positive control chemicals, and four Salmonella typhimurium strains TA98, TA100, TA1535 and TA1537 were included in the kit. TA100 and TA1535 strains detect base substitution mutations, whereas TA98 and TA1537 indicate frameshift mutations. The strains of bacteria included in a kit are in compliance with the Organization for Economic Cooperation and Development (OECD) 471 Guideline for Testing of Chemicals.
(§2) The assay is a liquid microplate modification of the traditional Salmonella test. During the procedure, bacteria are exposed to different concentrations of a test compound for 90 min in a medium containing sufficient histidine to support cell divisions. Then, the cultures are diluted in a pH indicator medium lacking histidine and aliquoted into 48 wells of a 384-well plate. Within 2 days, bacteria that have undergone reversion to amino acid prototrophy will form colonies. Products of bacteria metabolism reduce pH of the medium, changing the color of wells from purple to yellow.
(§3) The test procedure provided by Xenometrix and described in detail elsewhere was followed. Bacterial strains were grown overnight (14–16 h) in exposure medium in a shaker incubator and then exposed to KM-568 in 24-well plates for 90 min at 37 °C with agitation. Final KM-568 concentrations in the assay were 0.1, 0.2, and 0.5 mM. After preincubation, the cultures were diluted in the indicator medium and the contents of each 24-well culture were transferred to 48 wells on a 384-well plate and incubated further for 48 h at 37 °C without agitation. After the exposure, the number of wells containing bacteria was scored for yellow wells. […] Pure DMSO was used as a negative control. All doses were performed in triplicate.
(§4) The fold increase of revertants relative to the solvent control was determined by dividing the mean number of positive wells at each dose by the solvent control at baseline. The solvent control at baseline was calculated as the mean number of positive wells in the solvent control plus one standard deviation (SD). When an increase of more than twofold relative to the baseline at more than one dose with a dose–response was observed, the sample was classified as positive, whereas when no response > 2 times the baseline and no dose–response was stated, the sample was classified as negative.

Series [3] in a line: Ames microplate format (MPF) assay, TA1537. Conditions: Salmonella typhimurium.
From the text: as §1, §2, §3, §4

Series [4] has as its system rat cerebral cortex NMDA receptor. Put plainly: NMDA receptor radioligand binding ([3H]CGP39653). The following applies: 10 µM; antagonist radioligand. How it is done:
In order to identify molecular mechanism of action, KM-568 was tested at 10 µM in three radioligand binding assays: rat cerebral cortex GABA receptor non-selective agonist radioligand, AMPA (α-amino-3-hydroxy-5-methyl-4-isoxazolepropionic acid) receptor agonist radioligand, and NMDA (N-methyl-D-aspartate) receptor antagonist radioligand as well as one functional assay involving a human recombinant TRPV1 receptor expressed in CHO cells (agonist and antagonist effects).
Tests were performed by Eurofins Cerep (Eurofins CEREP SA, Celle-Lévescault, France) as a commercial service. In radioligand assays, rat cerebral cortex GABA receptor as well as rat cerebral cortex AMPA (α-amino-3-hydroxy-5-methyl-4-isoxazolepropionic acid) and NMDA (N-methyl-D-aspartate) receptors with 10 nM [^3H]GABA, 8 nM [^3H]AMPA, and 5 nM [^3H]CGP39653, respectively, were used. The results were detected by means of scintillation counting. In functional assays, a human recombinant TRPV1 receptor expressed in Chinese hamster ovary (CHO) cells with 1 µM capsaicin or 30 nM capsazepine were used. Fluorimetry was used as a detection method.

Series [5] concerns C57/Bl6 mice. Put plainly: Mesial temporal lobe epilepsy model (MTLE). The format is in vivo. Conditions: 114 mg/kg i.p., recording period 20–40 min. As to the method:
Adult male C57/Bl6 mice were placed in a stereotactic frame, injected with kainate (1 nmol/100 nL) and implanted with 1 bipolar electrode in the dorsal hippocampus. The animals were then allowed to recover for four weeks. Four animals chosen for tests were intraperitoneally injected with KM-568 at 114 mg/kg (ED50 obtained in 6-Hz 44 mA test). Digital EEG recordings were performed on freely moving animals for 20 min pre-injection (reference period) and from 20 to 40 min after injection (10 min before and 10 min after peak time of effect in a 6-Hz 44 mA test). Animals are used as their own controls. In the testing periods, spontaneous recurrent hippocampal paroxysmal discharges (HPD) were counted.

Series [6] has as its system Salmonella typhimurium strains TA98, TA100, TA1535 and TA1537. As to the kind of experiment: Ames microplate format (MPF) assay, overall verdict. Conditions: 0.1, 0.2, 0.5 mM; four strains.
From the text: as §1
The assay is a liquid microplate modification of the traditional Salmonella test. During the procedure, bacteria are exposed to different concentrations of a test compound for 90 min in a medium containing sufficient histidine to support cell divisions. […]
The test procedure provided by Xenometrix and described in detail elsewhere was followed. […] After the exposure, the number of wells containing bacteria was scored for yellow wells. […]
The fold increase of revertants relative to the solvent control was determined by dividing the mean number of positive wells at each dose by the solvent control at baseline. The solvent control at baseline was calculated as the mean number of positive wells in the solvent control plus one standard deviation (SD). […]

Turning to `C[C@H](O)CNC(=O)/C=C/c1ccccc1` [KM-568, S(+)-(2E)-N-(2-hydroxypropyl)-3-phenylprop-2-enamide], the “percent of living cells” value in series [1] (H9c2, 24 h incubation with 100 µM) is given as about 100%. Besides, the “cytotoxic effect, MTT assay” value in series [1] (H9c2, up to 100 µM, 24 h) was “no cytotoxic effect”. In addition, in series [2], the fold induction at 90 min, 0.1 mM worked out at 0.1; the fold induction at 90 min, 0.2 mM worked out at 0.9; the fold induction at 90 min, 0.5 mM came to 0.7. Further, in series [3], the fold induction at 90 min, 0.1 mM is 1; the fold induction at 90 min, 0.2 mM came to 0.7; the fold induction at 90 min, 0.5 mM is 0.7. Further, the “Effect in NMDA receptor radioligand binding assay” value in series [4] is on record as “No significant effects”. Further, in series [5], the “Effect (% of Baseline), HPD counts” value was 73.9 % of Baseline and the “Mean HPD Counts” value is 12.8. Also, in series [6], the “mutagenic activity in the Ames MPF assay” value is “did not exhibit mutagenic activity”.
